# Laboratory results taken from publication PMC8098127, “A new crystal form of GABARAPL2” (Acta Crystallographica. Section F, Structural Biology …, 2021).
# Target: T1, GABARAPL2 (Homo sapiens, UniProt P60520)
# T1 construct: GST (N, cleaved yes); made in house; host or cells: E. coli BL21 (DE3)
# Assay: Surface plasmon resonance (SPR) binding of GABARAPL2 to captured NDP52 I133W LIR peptide, steady state
# Conditions: full-length GABARAPL2 (C-terminal Phe117 present) injected over N-terminal LC-biotin peptide on streptavidin chip, BIAcore S200, 10 mM HEPES, 150 mM NaCl, 3.4 mM EDTA, 0.05% Tween pH 7.4, threefold, ten-step dilution series, injected 160 s, 800 s dissociation, steady-state fit, report point 145 s after injection
# Procedure: GABARAPL2 was expressed and purified as described previously (Muhlinen et al., 2012[▸]). Briefly, Escherichia coli strain BL21 (DE3) cells were transformed with a pETM-30 plasmid harbouring the GABARAPL2 gene (Table 1 ▸). The cells were grown in 1 l Luria Broth (LB) medium supplemented with 100 mg l^−1 kanamycin at 37°C with agitation. Gene expression was induced when the cell density (OD600) reached approximately 0.6 by the addition of […] isopropyl β-D-1-thiogalactopyranoside (IPTG) for 3 h. Cell pellets were obtained by centrifugation at 5000g for 10 min and were lysed by sonication in lysis buffer (50 mM Tris pH 8.0, 150 mM NaCl, 1 mM EDTA) at 4°C. The lysate was clarified by centrifugation at 45 000g for 45 min and was filtered through a […] filter and immobilized on a column containing 1 ml Gluthathione Sepharose 4B resin (GE Life Sciences). GABARAPL2 was cleaved from the GST fusion protein on-column with 200 µg TEV protease and 0.5 mM TCEP overnight at 4°C. […]
# Surface plasmon resonance (SPR) binding assays were performed using a BIAcore S200 in SPR buffer consisting of 10 mM HEPES, 150 mM NaCl, 3.4 mM EDTA, 0.05% Tween pH 7.4. […] The sensorgrams were analysed at steady state using a report point 145 s after injection, averaging the response over 5 s. […]
# T1 sequence (P60520 with tags, fused parts or gaps): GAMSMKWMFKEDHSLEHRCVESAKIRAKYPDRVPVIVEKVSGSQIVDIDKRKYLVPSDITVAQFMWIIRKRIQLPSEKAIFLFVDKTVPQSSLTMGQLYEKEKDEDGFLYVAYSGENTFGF
smiles,measurement,setting,value
"CC(C)C[C@H](NC(=O)[C@H](Cc1c[nH]c2ccccc12)NC(=O)[C@H](CC(=O)O)NC(=O)[C@H](CCC(=O)O)NC(=O)[C@H](CCC(=O)O)NC(=O)[C@H](CC(N)=O)NC(=O)[C@@H](N)CCC(=O)O)C(=O)N[C@H](C(=O)N[C@H](C(=O)N[C@H](C(=O)N[C@H](C(=O)N[C@@H](CCC(N)=O)C(=O)NCC(=O)N[C@@H](CCC(=O)O)C(=O)O)[C@@H](C)O)[C@@H](C)O)C(C)C)C(C)C [NDP52 I133W LIR peptide, ENEEDWLVVTTQGE]",Kd,SPR Experiment 1,4.85 µM
same,Kd,SPR Experiment 2,5.07 µM
